Where two headings read alike, the source gives them in different places.
Assays:
[1] = system: T-Rex 293 cell line SC3 cells having increased expression of androgen receptor protein due to exposure to doxycycline; assay: Cellular growth inhibition assay, T-Rex 293 SC3 cells with doxycycline (CellTiter-Glo, 72 hours); type: cell-based; conditions: T-Rex 293 SC3 cells with increased androgen receptor expression due to doxycycline (10 ng/mL)
Method: (§1) The following types of cells were prepared for this experiment: (i) a T-Rex 293 cell line having increased expression of androgen receptor protein due to exposure to doxycycline and (ii) a T-Rex 293 cell line lacking increased expression of androgen receptor protein. Ability of the test compounds to inhibit proliferation of the foregoing cell types was evaluated according to the procedures set forth below.
(§2) The doxycycline-inducible androgen receptor protein expressing cell line was established using the following protocol: T-Rex 293 cells were purchased from Invitrogen (Cat #R71007) and transfected using Lipofectamine 2000 with the wild-type androgen receptor protein sequence cloned into the pcDNA4/TO vector. Transfected cells were selected using 400 μg/mL Zeocin (Invitrogen Cat #R25001). Following selection, single clones were raised and maintained in Dulbecco's Modified Eagle Medium (DMEM) supplemented with 10% w/w Tetracycline-free fetal bovine serum (FBS) and 250 μg/mL Zeocin. Clones were analyzed for expression of androgen receptor protein in the presence and absence of 10 ng/mL doxycycline (Sigma Cat #D9891), and a single doxycycline-inducible clone (hereinafter “SC3”) was selected for use in downstream assays.
(§3) The SC3 cells were seeded on poly-D-lysine coated, black clear-bottom 384-well plates at 2500/well, in 25 μL Phenol Red Free Dulbecco's Modified Eagle Medium (DMEM) supplemented with 10% w/w charcoal-dextran treated fetal bovine serum (FBS) and 1% w/w pen-strep, with or without 10 ng/mL doxycycline. Pen-Strep is a commercially available mixture of penicillin G and streptomycin, which is used in mammalian cell culture media to prevent bacterial contamination. Phenol Red Free Dulbecco's Modified Eagle Medium (DMEM) supplemented with 10% w/w charcoal-dextran treated fetal bovine serum (FBS) and 1% w/w pen-strep, with or without 10 ng/mL doxycycline is herein referred to as Treatment Medium. Following seeding of cells in the plates, the plates were spun at 300×g for 30 seconds, then equilibrated to room temperature for 30 minutes, and then deposited in a humidified tissue culture incubator maintained at 37° C. with 5% CO2.
(§4) At 24 hours after seeding of the cells, dilutions of test compound were prepared in DMSO and dissolved in Treatment Medium, to achieve a final DMSO concentration of 0.5% w/w, thereby providing the Test Compound Solution. A 25 μL aliquot of the Test Compound Solution was added to cells in the well plates. An equal volume of a solution containing DMSO and Treatment Medium was used as a negative control. Following treatment of cells with Test Compound Solution or said equal volume of a solution containing DMSO and Treatment Medium, the plates were spun at 300×g for 30 seconds, and then left in an incubator for 72 hours.
(§5) At the end of the treatment duration, cell viability was quantified with CellTiter-Glo 2.0 reagent (Promega Cat #G9243). For this purpose, plates were equilibrated to room temperature for 30 minutes, and then 25 μL of CellTiter-Glo 2.0 reagent was added to cells in the plate wells. Plates were then agitated on a shaker for two minutes at 500 rpm and subsequently incubated at room temperature for 10 minutes. Following incubation, the plates were spun at 3000×g for 30 seconds, then sealed with an optical adhesive cover, and luminescence readings were measured with an EnVision Plate Reader.
(§6) Data was normalized using zero luminescence for baseline. A four-parameter non-linear regression curve fit was applied to dose-response data in GraphPad Prism data analysis software to determine the half-maximal growth inhibitory concentration (GI50) for each test compound.

VCaP cells = assay: Cellular growth inhibition assay for VCaP cells (CellTiter-Glo, 72 hours); type: cell-based, human
Method: VCaP cells were purchased from American Type Cell Culture (ATCC Cat #CRL2876) and then seeded on poly-D-lysine coated, black clear-bottom 384-well plates at 5000/well in 25 μL Dulbecco's Modified Eagle Medium (DMEM) supplemented with 10% w/w Fetal bovine serum (FBS) and 1% w/w Pen-Strep. Pen-Strep is a commercially available mixture of penicillin G and streptomycin, which is used in mammalian cell culture media to prevent bacterial contamination. Dulbecco's Modified Eagle Medium (DMEM) supplemented with 10% w/w fetal bovine serum (FBS) and 1% w/w Pen-Strep is herein referred to as Treatment Medium. Following seeding of cells in the plates, the plates were spun at 300×g for 30 seconds, then equilibrated to room temperature for 30 minutes, and then deposited in a humidified tissue culture incubator maintained at 37° C. with 5% C0-2.
as §4, §5, §6

[2] = system: T-Rex 293 cell line SC3 cells lacking increased expression of androgen receptor protein; assay: Cellular growth inhibition assay, T-Rex 293 SC3 cells without doxycycline (CellTiter-Glo, 72 hours); type: cell-based; conditions: T-Rex 293 cell line SC3 cells not exposed to doxycycline (lacking increased androgen receptor expression)
Method: as §1, §2, §3, §4, §5, §6

Structure (SMILES)	GI50 ([1]; 72 h) [nM]	GI50 (VCaP cells; Homo sapiens, VCaP, 72 h) [nM]	GI50 ([2]; 72 h) [nM]	GI50 [1] [nM]	GI50 (VCaP cells) [nM]	GI50 [2] [nM]
CCNC(=O)C[C@@H]1N=C(c2ccc(OCCCOC3CCN(c4ccc(C(=O)N[C@H]5CC[C@H](Oc6ccc(C#N)c(Cl)c6)CC5)nn4)CC3)cc2)c2c(sc(C)c2C)-n2c(C)nnc21 [I-14]	< 500	< 500	< 500			
CCNC(=O)C[C@@H]1N=C(c2ccc(CCCCCCOC3CCN(c4ccc(C(=O)N[C@H]5CC[C@H](Oc6ccc(C#N)c(Cl)c6)CC5)nn4)CC3)cc2)c2c(sc(C)c2C)-n2c(C)nnc21 [I-22]	< 500	500 to 1500	500 to 1500			
CCNC(=O)C[C@@H]1N=C(c2cccc(OCCOCCOC3CCN(c4ccc(C(=O)N[C@H]5CC[C@H](Oc6ccc(C#N)c(Cl)c6)CC5)nn4)CC3)c2)c2c(sc(C)c2C)-n2c(C)nnc21 [I-23]	< 500	> 3000	1500 to 3000			
CCNC(=O)C[C@@H]1N=C(c2ccc(OC3CN(CC4CCN(c5ccc(C(=O)N[C@H]6CC[C@H](Oc7ccc(C#N)c(Cl)c7)CC6)nn5)CC4)C3)cc2)c2c(sc(C)c2C)-n2c(C)nnc21 [I-45]	< 500	500 to 1500	500 to 1500			
CCNC(=O)C[C@@H]1N=C(c2ccc(OC3CC(N(C)C4CCN(c5ccc(C(=O)N[C@H]6CC[C@H](Oc7ccc(C#N)c(Cl)c7)CC6)nn5)CC4)C3)cc2)c2c(sc(C)c2C)-n2c(C)nnc21 (stereo partly drawn) [I-46]	< 500	< 500	500 to 1500			
CCNC(=O)C[C@@H]1N=C(c2ccc(N3CC(N(C4CC4)C4CN(c5ccc(C(=O)N[C@H]6CC[C@H](Oc7ccc(C#N)c(Cl)c7)CC6)nn5)C4)C3)cc2)c2c(sc(C)c2C)-n2c(C)nnc21 [I-56]	< 500	< 500	< 500			
CCNC(=O)C[C@@H]1N=C(c2ccc(N3CC(OC4CCN(c5ccc(C(=O)N[C@H]6CC[C@H](Oc7ccc(C#N)c(Cl)c7)CC6)nn5)CC4)C3)cc2)c2c(sc(C)c2C)-n2c(C)nnc21 [I-57]	< 500	< 500	< 500			
CCNC(=O)C[C@@H]1N=C(c2ccc(N3CCC(OC4CN(c5ccc(C(=O)N[C@H]6CC[C@H](Oc7ccc(C#N)c(Cl)c7)CC6)nn5)C4)CC3)cc2)c2c(sc(C)c2C)-n2c(C)nnc21 [I-58]	< 500	< 500	500 to 1500			
CCNC(=O)C[C@@H]1N=C(c2ccc(N3CC(N(C)C4CN(c5ccc(C(=O)N[C@H]6CC[C@H](Oc7ccc(C#N)c(Cl)c7)CC6)nn5)C4)C3)cc2)c2c(sc(C)c2C)-n2c(C)nnc21 [I-61]	< 500	< 500	> 3000			
CCNC(=O)C[C@@H]1N=C(c2ccc(N3CC(N(C)C4CCN(c5ccc(C(=O)N[C@H]6CC[C@H](Oc7ccc(C#N)c(Cl)c7)CC6)nn5)CC4)C3)cc2)c2c(sc(C)c2C)-n2c(C)nnc21 [I-62]	< 500	< 500	> 3000			
CCNC(=O)C[C@@H]1N=C(c2ccc(N3CC(N(C(C)C)C4CN(c5ccc(C(=O)N[C@H]6CC[C@H](Oc7ccc(C#N)c(Cl)c7)CC6)nn5)C4)C3)cc2)c2c(sc(C)c2C)-n2c(C)nnc21 [I-64]	< 500	< 500	500 to 1500			
CCNC(=O)C[C@@H]1N=C(c2ccc(N(C)C3CN(c4ccc(C(=O)N[C@H]5CC[C@H](Oc6ccc(C#N)c(Cl)c6)CC5)nn4)C3)cc2)c2c(sc(C)c2C)-n2c(C)nnc21 [I-65]	< 500	500 to 1500	500 to 1500			
CCNC(=O)C[C@@H]1N=C(c2ccc(N3CC(CC4CN(c5ccc(C(=O)N[C@H]6CC[C@H](Oc7ccc(C#N)c(Cl)c7)CC6)nn5)C4)C3)cc2)c2c(sc(C)c2C)-n2c(C)nnc21 [I-66]	< 500	< 500	500 to 1500			
CCNC(=O)C[C@@H]1N=C(c2ccc(N(C)C3CC(OC4CCN(c5ncc(C(=O)N[C@H]6CC[C@H](Oc7ccc(C#N)c(Cl)c7)CC6)cn5)CC4)C3)cc2)c2c(sc(C)c2C)-n2c(C)nnc21 (stereo partly drawn) [I-69]	< 500	< 500	500 to 1500			
CCNC(=O)C[C@@H]1N=C(c2ccc(N3CC(OC4CN(c5ccc(C(=O)N[C@H]6CC[C@H](Oc7ccc(C#N)c(Cl)c7)CC6)nn5)C4)C3)cc2)c2c(sc(C)c2C)-n2c(C)nnc21 [I-70]	< 500	< 500	500 to 1500			
Cc1sc2c(c1C)C(c1ccc(OC3CC4(CCN(c5ccc(C(=O)N[C@H]6CC[C@H](Oc7ccc(C#N)c(Cl)c7)CC6)nn5)CC4)C3)nc1)=NC1(CC1)c1nnc(C)n1-2 [I-443]	< 500	< 500	> 3000			
Cc1sc2c(c1C)C(c1ccc(CC3CC4(CCN(c5ccc(C(=O)N[C@H]6CC[C@H](Oc7ccc(C#N)c(Cl)c7)CC6)nn5)CC4)C3)cc1)=NC1(CC1)c1nnc(C)n1-2 [I-444]	< 500	< 500	> 3000			
Cc1sc2c(c1C)C(c1ccc(OCC3CC4(CCCN(c5ccc(C(=O)N[C@H]6CC[C@H](Oc7ccc(C#N)c(Cl)c7)CC6)nn5)C4)C3)cc1)=NCc1nnc(C)n1-2 (stereo partly drawn) [I-446]			> 3000	< 500	< 500	
Cc1sc2c(c1C)C(c1ccc(OCC3CC4(CCCN(c5ccc(C(=O)N[C@H]6CC[C@H](Oc7ccc(C#N)c(Cl)c7)CC6)nn5)C4)C3)cc1)=NCc1nnc(C)n1-2 (stereo partly drawn) [I-447]				< 500	> 3000	> 3000
Cc1sc2c(c1C)C(c1ccc(N3CCC4(CCCN(c5ccc(C(=O)N[C@H]6CC[C@H](Oc7ccc(C#N)c(Cl)c7)CC6)nn5)C4)CC3)nc1)=NC1(CC1)c1nnc(C)n1-2 [I-448]	< 500	1500 to 3000	> 3000			
Cc1sc2c(c1C)C(c1ccc(N3CCC4(CC3)CCN(c3ccc(C(=O)N[C@H]5CC[C@H](Oc6ccc(C#N)c(Cl)c6)CC5)nn3)C4)nc1)=NCc1nnc(C)n1-2 [I-449]	< 500	> 3000	> 3000			
C#Cc1ccc(O[C@H]2CC[C@H](NC(=O)c3ccc(N4CCC(C5CN(c6ccc(C7=NC8(CC8)c8nnc(C)n8-c8sc(C)c(C)c87)cc6)C5)CC4)nn3)CC2)cc1Cl [I-450]	< 500	< 500	> 3000			

Source: patent US20260109707A1, “HETEROBIFUNCTIONAL COMPOUNDS AND METHODS OF TREATING DISEASE” (Halda Therapeutics OpCo. Inc., priority 2022, published 2026)
